# Target: T1, cellular PARG (Homo sapiens, UniProt Q86W56)
# T1 construct: endogenous in cells; host or cells: HeLa
# Test: Nuclear PAR accumulation assay (immunofluorescence high-content imaging, MMS-treated HeLa cells)
# Type: cell-based
# Conditions: 1 hour compound then MMS 50 μg/mL for an additional hour
# Procedure, shortened: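 HeLa cells pretreated with compound for 1 h at 37° C, then given 50 μg/mL MMS for another hour. After methanol fixation, PAR was immunostained with DAPI nuclear counterstain; per-nucleus intensity and percent PAR-positive cells were imaged at 20× (≥1,000 cells/well). IC50 from four-parameter logistic fit.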
# T1 sequence (Q86W56 whole entry): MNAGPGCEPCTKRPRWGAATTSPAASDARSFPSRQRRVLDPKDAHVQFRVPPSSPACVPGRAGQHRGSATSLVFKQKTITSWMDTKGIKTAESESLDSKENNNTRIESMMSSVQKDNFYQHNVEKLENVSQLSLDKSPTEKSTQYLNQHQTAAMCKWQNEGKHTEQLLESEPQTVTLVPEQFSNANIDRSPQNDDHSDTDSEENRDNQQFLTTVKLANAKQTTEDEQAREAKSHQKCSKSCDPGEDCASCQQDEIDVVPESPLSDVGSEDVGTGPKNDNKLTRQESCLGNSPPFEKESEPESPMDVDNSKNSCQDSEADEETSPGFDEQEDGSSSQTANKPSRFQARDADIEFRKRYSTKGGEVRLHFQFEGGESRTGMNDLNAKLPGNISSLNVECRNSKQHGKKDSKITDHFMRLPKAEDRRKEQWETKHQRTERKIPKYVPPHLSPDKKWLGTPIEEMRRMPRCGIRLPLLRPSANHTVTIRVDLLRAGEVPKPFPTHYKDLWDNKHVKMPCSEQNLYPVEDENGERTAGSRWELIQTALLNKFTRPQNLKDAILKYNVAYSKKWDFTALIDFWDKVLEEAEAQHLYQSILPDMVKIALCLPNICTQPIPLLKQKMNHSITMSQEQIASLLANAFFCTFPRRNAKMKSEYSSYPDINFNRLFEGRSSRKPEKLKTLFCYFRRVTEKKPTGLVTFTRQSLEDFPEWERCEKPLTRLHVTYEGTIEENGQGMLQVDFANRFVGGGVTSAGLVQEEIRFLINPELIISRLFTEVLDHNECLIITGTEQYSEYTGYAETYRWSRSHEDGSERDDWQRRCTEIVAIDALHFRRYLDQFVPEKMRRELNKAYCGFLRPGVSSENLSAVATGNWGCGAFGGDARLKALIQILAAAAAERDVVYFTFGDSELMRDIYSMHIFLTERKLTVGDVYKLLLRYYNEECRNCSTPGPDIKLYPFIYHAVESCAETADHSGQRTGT
row,IC50 [nM],SMILES
1,< 100,"[2H]C([2H])(c1cnn(C)c1)N1C(=O)c2cc(S(=O)(=O)NC3(C)CC3)ccc2N2C1=NC[C@H]2C#CC1=CCNCC1 [Example 281, (R)-4-((1-methyl-1H-pyrazol-4-yl)methyl-d2)-N-(1-methylcyclopropyl)-5-oxo-1-((1,2,3,6-tetrahydropyridin-4-yl)ethynyl)-1,2,4,5-tetrahydroimidazo[1,2-a]quinazoline-7-sulfonamide]"
2,< 100,"Cc1nn(C)cc1C#C[C@@H]1CN=C2N(Cc3cnn(C)c3)C(=O)c3cc(S(=O)(=O)NC4(C)CC4)ccc3N21 [Example 218, (R)-1-((1,3-dimethyl-1H-pyrazol-4-yl)ethynyl)-4-((1-methyl-1H-pyrazol-4-yl)methyl)-N-(1-methylcyclopropyl)-5-oxo-1,2,4,5-tetrahydroimidazo[1,2-a]quinazoline-7-sulfonamide]"
3,100 to 1000,"C[C@@H]1CN=C2N(Cc3ccnc(C#N)c3)C(=O)c3cc(S(=O)(=O)NC4(C)CC4)ccc3N21 [Example 239, (R)-4-((2-cyanopyridin-4-yl)methyl)-1-methyl-N-(1-methylcyclopropyl)-5-oxo-1,2,4,5-tetrahydroimidazo[1,2-a]quinazoline-7-sulfonamide]"
4,< 100,"[2H]C([2H])(c1cnn(C)c1)N1C(=O)c2cc(S(=O)(=O)NC3(C)CC3)ccc2N2C1=NC[C@H]2C#Cc1cc(C)nn1C [Example 231, (R)-1-((1,3-dimethyl-1H-pyrazol-5-yl)ethynyl)-4-((1-methyl-1H-pyrazol-4-yl)methyl-d2)-N-(1-methylcyclopropyl)-5-oxo-1,2,4,5-tetrahydroimidazo[1,2-a]quinazoline-7-sulfonamide]"
5,< 100,"Cn1cc(CN2C(=O)c3cc(S(=O)(=O)NC4(C)CC4)ccc3N3C2=NC[C@H]3C#Cc2cnc3cccnn23)cn1 [Example 221, (R)-1-(imidazo[1,2-b]pyridazin-3-ylethynyl)-4-((1-methyl-1H-pyrazol-4-yl)methyl)-N-(1-methylcyclopropyl)-5-oxo-1,2,4,5-tetrahydroimidazo[1,2-a]quinazoline-7-sulfonamide]"
6,< 100,"CN1C(=O)c2cc(S(=O)(=O)NC3(C)CC3)c(F)cc2N2C1=NCC2C#Cc1cnc2cccnn12 (stereo not shown) [Example 215, 8-fluoro-1-(imidazo[1,2-b]pyridazin-3-ylethynyl)-4-methyl-N-(1-methylcyclopropyl)-5-oxo-1,2,4,5-tetrahydroimidazo[1,2-a]quinazoline-7-sulfonamide]"
7,< 100,"CN1C(=O)c2cc(S(=O)(=O)NC3(C)CC3)ccc2N2C1=NCC2C#Cc1ccc(C#N)nc1 (stereo not shown) [Example 202, 1-((6-cyanopyridin-3-yl)ethynyl)-4-methyl-N-(1-methylcyclopropyl)-5-oxo-1,2,4,5-tetrahydroimidazo[1,2-a]quinazoline-7-sulfonamide]"
8,100 to 1000,"[2H]C([2H])(c1cnn(C)c1)N1C(=O)c2cc(S(=O)(=O)NC3(C)CC3)c(OC)cc2N2C1=N[C@H]1CCC[C@H]12 [Example 213, (7aS,10aR)-2-methoxy-6-((1-methyl-1H-pyrazol-4-yl)methyl-d2)-N-(1-methylcyclopropyl)-5-oxo-6,7a,8,9,10,1Oa-hexahydro-5H-cyclopenta[4,5]imidazo[1,2-a]quinazoline-3-sulfonamide]"
9,1000 to 10000,"[2H]C([2H])(c1cnn(C)c1)N1C(=O)c2cc(S(=O)(=O)NC3(C)CC3)ccc2N2C1=N[C@H]1C[C@H](N(C)C)C[C@H]12 [Example 284, (7aS,9S,10aR)-9-(dimethylamino)-6-((1-methyl-1H-pyrazol-4-yl)methyl-d2)-N-(1-methylcyclopropyl)-5-oxo-6,7a,8,9,10,10a-hexahydro-5H-cyclopenta[4,5]imidazo[1,2-a]quinazoline-3-sulfonamide]"

# More lines, now with the values behind:
row,SMILES,IC50 [nM]
1,"COc1ccc(CN2C(=O)c3cc(S(=O)(=O)NC4(C)CC4)ccc3N3C2=NC[C@H]3C)cc1 [Example 9, (R)-4-(4-methoxybenzyl)-1-methyl-N-(1-methylcyclopropyl)-5-oxo-1,2,4,5-tetrahydroimidazo[1,2-a]quinazoline-7-sulfonamide]",100 to 1000
2,"CN1C(=O)c2cc(S(=O)(=O)NC3(C)CC3)ccc2N2C1=NC[C@H]2C#Cc1ccc2c(cnn2C)c1 [Example 148, (R)-4-methyl-1-((1-methyl-1H-indazol-5-yl)ethynyl)-N-(1-methylcyclopropyl)-5-oxo-1,2,4,5-tetrahydroimidazo[1,2-a]quinazoline-7-sulfonamide]",< 100
3,"COC1(C(=O)N2CCN(c3cc(S(=O)(=O)NC4(C)CC4)cc4c3N3C(=NC[C@H]3C)N(C)C4=O)CC2)CC1 [Example 125, (R)-9-(4-(1-methoxycyclopropane-1-carbonyl)piperazin-1-yl)-1,4-dimethyl-N-(1-methylcyclopropyl)-5-oxo-1,2,4,5-tetrahydroimidazo[1,2-a]quinazoline-7-sulfonamide]",< 100
4,"CNC(=O)c1ccc(-c2cc(S(=O)(=O)NC3(C)CC3)cc3c2N2CC(C)(C)N=C2N(C)C3=O)cn1 [Example 58, N-methyl-5-(2,2,4-trimethyl-7-(N-(1-methylcyclopropyl)sulfamoyl)-5-oxo-1,2,4,5-tetrahydroimidazo[1,2-a]quinazolin-9-yl)picolinamide]",100 to 1000
5,"C[C@@H]1CN(c2cc(S(=O)(=O)NC3(C)CC3)cc3c2N2C(=NC[C@H]2C)N(Cc2cnn(C)c2)C3=O)CCN1 [Example 78, (R)-1-methyl-4-((1-methyl-1H-pyrazol-4-yl)methyl)-N-(1-methylcyclopropyl)-9-((R)-3-methylpiperazin-1-yl)-5-oxo-1,2,4,5-tetrahydroimidazo[1,2-a]quinazoline-7-sulfonamide]",100 to 1000
6,"Cn1cc(CN2C(=O)c3cc(S(=O)(=O)NC4(C)CC4)ccc3N3C2=NC[C@H]3C#CC2CNC2)cn1 [Example 89, (R)-1-(azetidin-3-ylethynyl)-4-((1-methyl-1H-pyrazol-4-yl)methyl)-N-(1-methylcyclopropyl)-5-oxo-1,2,4,5-tetrahydroimidazo[1,2-a]quinazoline-7-sulfonamide]",1000 to 10000
7,"C[C@@H]1CN=C2N(Cc3cnn(C)c3)C(=O)c3cc(S(=O)(=O)NC4(C)CC4)cc(N4C[C@H](C)N[C@@H](C)C4)c3N21 [Example 53, (R)-9-((3S,5S)-3,5-dimethylpiperazin-1-yl)-1-methyl-4-((1-methyl-1H-pyrazol-4-yl)methyl)-N-(1-methylcyclopropyl)-5-oxo-1,2,4,5-tetrahydroimidazo[1,2-a]quinazoline-7-sulfonamide]",1000 to 10000
8,"CCN1C(=O)c2cc(S(=O)(=O)NC3(C)CC3)ccc2N2C1=NC[C@H]2C#CC1(N(C)C)CC1 [Example 186, (R)-1-((1-(dimethylamino)cyclopropyl)ethynyl)-4-ethyl-N-(1-methylcyclopropyl)-5-oxo-1,2,4,5-tetrahydroimidazo[1,2-a]quinazoline-7-sulfonamide]",< 100
9,"C[C@@H]1CN=C2N(Cc3cnn(C)c3)C(=O)c3cc(S(=O)(=O)NC4(C)CC4)cc(C4CCN(C)CC4)c3N21 [Example 22, (R)-1-methyl-4-((1-methyl-1H-pyrazol-4-yl)methyl)-N-(1-methylcyclopropyl)-9-(1-methylpiperidin-4-yl)-5-oxo-1,2,4,5-tetrahydroimidazo[1,2-a]quinazoline-7-sulfonamide]",100 to 1000
10,"Cn1cc(CN2C(=O)c3cc(S(=O)(=O)NC4(C)CC4)ccc3N3C2=N[C@H]2CNCC[C@H]23)cn1 [Example 159, (7aS,11aR)-6-((1-methyl-1H-pyrazol-4-yl)methyl)-N-(1-methylcyclopropyl)-5-oxo-5,6,7a,8,9,10,11,11a-octahydropyrido[3′,4′:4,5]imidazo[1,2-a]quinazoline-3-sulfonamide]",1000 to 10000
11,"Cn1cc(CN2C(=O)c3cc(S(=O)(=O)NC4(C)CC4)ccc3N3C2=NC[C@H]3COc2ccn(C)n2)cn1 [Example 141, (S)-1-(((1-methyl-1H-pyrazol-3-yl)oxy)methyl)-4-((1-methyl-1H-pyrazol-4-yl)methyl)-N-(1-methylcyclopropyl)-5-oxo-1,2,4,5-tetrahydroimidazo[1,2-a]quinazoline-7-sulfonamide]",100 to 1000
12,"CCN1C(=O)c2cc(S(=O)(=O)NC3(C)CC3)ccc2N2C1=NC[C@H]2C#Cc1cnc2cc(CN(C)C)cnn12 [Example 191, (R)-1-((7-((dimethylamino)methyl)imidazo[1,2-b]pyridazin-3-yl)ethynyl)-4-ethyl-N-(1-methylcyclopropyl)-5-oxo-1,2,4,5-tetrahydroimidazo[1,2-a]quinazoline-7-sulfonamide]",< 100
13,"[2H]C([2H])(c1cnn(C)c1)N1C(=O)c2cc(S(=O)(=O)NC3(C)CC3)cc(Cl)c2N2C1=NC[C@H]2C#CC1CC1 [Example 16, (R)-9-chloro-1-(cyclopropylethynyl)-4-((1-methyl-1H-pyrazol-4-yl)methyl-d2)-N-(1-methylcyclopropyl)-5-oxo-1,2,4,5-tetrahydroimidazo[1,2-a]quinazoline-7-sulfonamide]",< 100
14,"CN1C(=O)c2cc(S(=O)(=O)NC3(C)CC3)cc(Br)c2N2C1=NC[C@H]2C#CC1CC1 [Example 34, (R)-9-bromo-1-(cyclopropylethynyl)-4-methyl-N-(1-methylcyclopropyl)-5-oxo-1,2,4,5-tetrahydroimidazo[1,2-a]quinazoline-7-sulfonamide]",< 100
15,"COc1ccc(C(=O)/C=C/C(=O)N2CCN(c3cc(S(=O)(=O)NC4(C)CC4)cc4c3N3C(=NC[C@H]3C)N(C)C4=O)CC2)cc1 [Example 57, (R,E)-9-(4-(4-(4-methoxyphenyl)-4-oxobut-2-enoyl)piperazin-1-yl)-1,4-dimethyl-N-(1-methylcyclopropyl)-5-oxo-1,2,4,5-tetrahydroimidazo[1,2-a]quinazoline-7-sulfonamide]",100 to 1000
16,"C[C@@H]1CN=C2N(C)C(=O)c3cc(S(=O)(=O)NC4(C)CC4)cc(-c4ccccc4CO)c3N21 [Example 62, (R)-9-(2-(hydroxymethyl)phenyl)-1,4-dimethyl-N-(1-methylcyclopropyl)-5-oxo-1,2,4,5-tetrahydroimidazo[1,2-a]quinazoline-7-sulfonamide]",1000 to 10000
